Test results published in patent publication US20040110771A1, “7-(r)-aminotriazolopyrimidines, the production thereof and use of the same for combatting phytopathogenic fungi” (priority 2000, published 2004).

Legend:
Assay type in all cases: in vivo
Puccinia recondita = assay: Curative activity against brown rust of wheat caused by Puccinia recondita; conditions: curative spray 24 h after inoculation, wheat seedlings "Kanzler", 7 days
Experimental: (§1) The active compounds were prepared separately or jointly as a 10% strength emulsion in a mixture of 70% by weight of cyclohexanone, 20% by weight of Nekanil® LN (Lutensol® AP6, wetting agent having emulsifying and dispersing action based on ethoxylated alkylphenols) and 10% by weight of Wettol® EM (nonionic emulsifier based on ethoxylated castor oil) and diluted with water to the desired concentration.
Leaves of potted wheat seedlings of the cultivar “Kanzler” were dusted with spores of brown rust (Puccinia recondita). The pots were then placed in a chamber with high atmospheric humidity (90 to 95%) at 20-22° C. for 24 hours. During this period, the spores germinated and the germinal tubes penetrated into the leaf tissue. The following day, the infected plants were sprayed to runoff point with an aqueous preparation of active compound which had been prepared from a stock solution made of 10% of active compound, 85% of cyclohexanone and 5% of emulsifier. After the spray coating had dried on, the test plants were cultivated in a greenhouse at 20-22° C. and 65-70% relative atmospheric humidity for 7 days. The extent of the rust fungus development on the leaves was then determined.

Pyrenophora teres = assay: Activity against net blotch of barley caused by Pyrenophora teres; conditions: barley seedlings "Igri", inoculated 24 h after spraying, 6 days
Experimental: as §1
Leaves of potted barley seedlings of the cultivar “Igri” were sprayed to runoff point with an aqueous preparation of active compound which had been prepared from a stock solution made of 10% of active compound, 85% of cyclohexanone and 5% of emulsifier and were inoculated 24 hours after the spray coating had dried on with an aqueous spore suspension of Pyrenophora teres, the net blotch pathogen. The test plants were then placed in a greenhouse at 20-24° C. and 95-100% relative atmospheric humidity. After 6 days, the extent of the development of the disease was determined visually in % infection of the entire leaf area.

[1] = system: Blumeria graminis forma specialis tritici; assay: Activity against mildew of wheat caused by Blumeria graminis forma specialis tritici; conditions: wheat seedlings "Kanzler", dusted with spores 24 h after spraying, 7 days
Experimental: as §1
Leaves of potted wheat seedlings of the cultivar “Kanzler” were sprayed to runoff point with an aqueous preparation of active compound which had been prepared from a stock solution made of 10% of active compound, 85% of cyclohexanone and 5% of emulsifier and were dusted 24 hours after the spray coating had dried on with spores of mildew of wheat (Blumeria graminis forma specialis tritici). The test plants were then placed in a greenhouse at 20-24° C. and 60-90% relative atmospheric humidity. After 7 days, the extent of the mildew development was determined visually in % infection of the entire leaf area.

Row | SMILES | % infection of the leaves after application of an aqueous preparation comprising . . . ppm of active compound (Puccinia recondita; 16 ppm) [%] | % infection of the leaves after application of an aqueous preparation comprising . . . ppm of active compound (Puccinia recondita; 63 ppm) [%] | % infection of the leaves after application of an aqueous preparation comprising . . . ppm of active compound (Puccinia recondita; 250 ppm) [%] | % infection of the leaves after application of an aqueous preparation comprising . . . ppm of active compound (Pyrenophora teres; 16 ppm) [%] | % infection of the leaves after application of an aqueous preparation comprising . . . ppm of active compound (Pyrenophora teres; 63 ppm) [%] | % infection of the leaves after application of an aqueous preparation comprising . . . ppm of active compound ([1]; 16 ppm) [%] | % infection of the leaves after application of an aqueous preparation comprising . . . ppm of active compound ([1]; 63 ppm) [%] | % infection of the leaves after application of an aqueous preparation comprising . . . ppm of active compound ([1]; 250 ppm) [%] | % infection of the leaves after application of an aqueous preparation comprising . . . ppm of active compound (Pyrenophora teres; 250 ppm) [%]
1 | CC[C@@H](C)Nc1c(-c2ccc(F)cc2C)c(Cl)nc2ncnn12 [I.-22] | 30 | 5 | 3 | 7 | 0 | 5 | 3 | 3 | 
2 | COCC(C)Nc1c(-c2c(F)cc(F)cc2F)c(Cl)nc2ncnn12 (stereo not drawn) [I.-32] |  | 70 | 15 | 5 | 0 |  |  |  | 0
3 | CCCC[C@@H](C)Nc1c(-c2c(F)cc(F)cc2F)c(Cl)nc2ncnn12 [I.-27] |  |  | 40 | 3 | 0 |  |  |  | 0
4 | CCCC[C@H](C)Nc1c(-c2c(F)cc(F)cc2F)c(Cl)nc2ncnn12 [comparison (S)-amine of I.-27] |  |  | 100 | 100 | 90 |  |  |  | 7
5 | CC[C@@H](C)Nc1c(-c2c(F)cccc2Cl)c(Cl)nc2ncnn12 [I.-1] | 5 | 3 | 0 | 50 | 0 |  |  |  | 
6 | COC[C@H](C)Nc1c(-c2c(F)cc(F)cc2F)c(Cl)nc2ncnn12 [comparison (S)-amine of I.-32] |  | 100 | 80 | 90 | 80 |  |  |  | 30
7 | CC[C@H](C)Nc1c(-c2c(F)cccc2Cl)c(Cl)nc2ncnn12 [comparison (S)-amine of I.-1] | 60 | 20 | 15 | 100 | 20 |  |  |  | 
8 | C[C@@H](Nc1c(-c2c(F)cc(F)cc2F)c(Cl)nc2ncnn12)C(C)(C)C [I.-15, (R)-5-chloro-7-(3,3-dimethylbut-2-yl)amino-6-(2,4,6-trifluoro-phenyl)-1,2,4-triazolo[1,5-a]pyrimidine] | 0 | 0 | 0 |  |  | 7 | 7 | 3 | 
